{"source": "patent US8552013B2", "about": "“Heterocyclic compounds based on N6-substituted adenine, methods of their preparation, their use for preparation of drugs, cosmetic preparations and growth regulators, pharmaceutical preparations, cosmetic preparations and growth regulators containing these compounds” (USTAV Experimentalni Botaniky Akademie Ved Ceske Republiky, priority 2001, dated 2013)", "key": {"[1]": {"test_system": "B16-F0 melanoma", "assay": "Calcein AM cytotoxicity, B16-F0", "assay_type": "cell-based", "details": "Mus musculus, B16F0, 72 h, read-out: IC 50, B16-F0", "method_in_brief": "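Cells pre-incubated 24 hours, then exposed for 72 hours at 37° C. to six 4-fold compound dilutions in duplicate, top well concentration usually 266.7 μM. Viability read by Calcein AM fluorescence after 1 hour; GI50 taken from dose-response curves of survival relative to control wells.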"}, "[2]": {"test_system": "breast carcinoma cell line MCF-7", "assay": "Calcein AM cytotoxicity, MCF7", "assay_type": "cell-based, human", "details": "read-out: IC 50, MCF7", "method_in_brief": "(§1)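 Cells in DMEM with 10% FCS, pre-incubated 24 h, then exposed to six 4-fold compound dilutions in duplicate for 72 h at 37 °C, 5% CO2. Viability read by Calcein AM fluorescence after 1 h further incubation.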"}, "[3]": {"test_system": "promyelocytic HL-60 leukemia", "assay": "Calcein AM cytotoxicity, HL60", "assay_type": "cell-based, human", "details": "read-out: IC 50, HL60", "method_in_brief": "as §1"}, "[4]": {"test_system": "Human lymphocytes", "assay": "Immunosuppressive activity, 3H-thymidine incorporation in concanavalin A activated lymphocytes", "assay_type": "cell-based", "details": "Lymphocyte, 72 hours, [3H]-TdR, read-out: Human lymphocytes ED50", "excerpt": "One of the most important parameters of specific cellular immunity is proliferative response of lymphocytes to antigens or polyclonal mitogens. The majority of normal mammalian peripheral lymphocytes comprise resting cells. Antigens or nonspecific polyclonal mitogens have the capacity to activate lymphoid cells and this is accompanied by dramatic changes of intracellular metabolism (mitochondrial activity, protein synthesis, nucleic acids synthesis, formation of blastic cells and cellular proliferation). […] Variety of in vitro assays was developed to measure proliferative response of lymphocytes. The most commonly used is ^3H-thymidine incorporation method.\nDuring cell proliferation, DNA has to be replicated before the cell is divided into two daughter cells. This close association between cell doublings and DNA synthesis is very attractive for assessing cell proliferation. If labelled DNA precursors are added to the cell culture, cells that are about to divide incorporate the labelled nucleotide into their DNA. Traditionally, those assays usually involve the use of radiolabelled nucleosides, particularly tritiated thymidine ([^3H]-TdR). The amount of [^3H]-TdR incorporated into the cellular DNA is quantified by liquid scintillation counting.\nHuman heparinized peripheral blood was obtained from healthy volunteers by cubital vein punction. The blood was diluted in PBS (1:3) and mononuclear cells were separated by centrifugation in Ficoll-Hypaque density gradient (Pharmacia, 1.077 g/ml) at 2200 rpm for 30 minutes. Following centrifugation, lymphocytes were washed in PBS and resuspended in cell culture medium (RMPI 1640, 2 mM glutamine, 100 U/ml penicillin, 100 μg/ml streptomycin, 10% fetal calf serum and sodium bicarbonate).\nThe cells were diluted at target density of 1,100,000 cells/ml were added by pipette (180 μl) into 96/well microtiter plates. Four-fold dilutions of the intended test concentration were added at time zero in 20 μl aliquots to the microtiter plate wells. Usually, test compound was evaluated at six 4-fold dilutions. In routine testing, the highest well concentration was 266.7 μM. All drug concentrations were examined in duplicates. All wells with exception of unstimulated controls were activated with 50 μl of concanavalin A (25 μg/ml). Incubations of cells with test compounds lasted for 72 hours at 37° C., in 5% CO2 atmosphere and 100% humidity. At the end of incubation period, the cells were assayed by using the [^3H]-TdR:\nCell cultures were incubated with 0.5 μCi (20 μl of stock solution 500 μCi/ml) per well for 6 hours at 37° C. and 5% CO2. The automated cell harvester was used to lyse cells in water and adsorb the DNA onto glass-fiber filters in the format of microtiter plate. The DNA incorporated [^3H]-TdR was retained on the filter while unincorporated material passes through. The filters were dried at room temperature overnight, sealed into a sample bag with 10-12 ml of scintillant. The amount of [^3H]-TdR present in each filter (in cpm) was determined by scintillation counting in a Betaplate liquid scintillation counter. The effective dose of immunosuppressant (ED) was calculated using the following equation: ED=(CCPMdrug exposed well/mean CCPMcontrol wells)×100%. The ED50 value, the drug concentration inhibiting proliferation of 50% of lymphocytes, was calculated from the obtained dose response curves."}}, "note": "pEC50, pIC50: −log10 of the molar value. “And” between values parts separate entries of the source, which are not always exact repeats. Identical values can stand only once. Like-named read-outs stand apart in the source and are kept apart here."}
{"molecule": "COc1cccc(CNc2ncnc3nc[nH]c23)c1", "note": "[6-(3-methoxybenzylamino)purine]", "values": [{"measurement": "pIC50", "setting": "[1]", "value": 4.38}, {"measurement": "pIC50", "setting": "[2]; 72 hours, listed as 3MeO BAP", "value": 3.83}]}
{"molecule": "Oc1ccccc1CNc1ncnc2nc[nH]c12", "note": "[ortho-topolin, 6-(2-hydroxybenzylamino)purine]", "values": [{"measurement": "pIC50", "setting": "[1]", "value": 3.82}]}
{"molecule": "Ic1cccc(CNc2ncnc3nc[nH]c23)c1", "note": "[6-(3-iodobenzylamino)purine]", "values": [{"measurement": "pIC50", "setting": "[2]; Homo sapiens, MCF7, 72 h", "value": 3.89}, {"measurement": "pIC50", "setting": "[3]; Homo sapiens, HL-60, 72 h", "value": 3.88}]}
{"molecule": "Cc1ccc(CNc2ncnc3nc[nH]c23)cc1", "note": "[6-(4-methylbenzylamino)purine]", "values": [{"measurement": "pIC50", "setting": "[2]; Homo sapiens, MCF7, 72 h", "value": 4.08}, {"measurement": "pIC50", "setting": "[3]; Homo sapiens, HL-60, 72 h", "value": 4.06}]}
{"molecule": "Oc1cccc(CNc2ncnc3nc[nH]c23)c1", "note": "[meta-topolin, 6-(3-hydroxybenzylamino)purine]", "values": [{"measurement": "pEC50", "setting": "[4]", "value": 5.25}, {"measurement": "pIC50", "setting": "[1]", "value": 4.04}]}
{"molecule": "Cc1ccccc1CNc1ncnc2nc[nH]c12", "note": "[6-(2-methylbenzylamino)purine]", "values": [{"measurement": "pIC50", "setting": "[2]; Homo sapiens, MCF7, 72 h", "value": "< 3.78"}, {"measurement": "pIC50", "setting": "[3]; Homo sapiens, HL-60, 72 h", "value": "< 3.78"}]}
{"molecule": "Fc1cccc(CNc2ncnc3nc[nH]c23)c1", "note": "[6-(3-fluorobenzylamino)purine]", "values": [{"measurement": "pEC50", "setting": "[4]", "value": 4.74}]}
{"molecule": "Fc1ccccc1CNc1ncnc2nc[nH]c12", "note": "[6-(2-fluorobenzylamino)purine]", "values": [{"measurement": "pEC50", "setting": "[4]", "value": 5.60}, {"measurement": "pIC50", "setting": "[2]; 72 hours, listed as 2F BAP", "value": "3.96 and 3.89"}, {"measurement": "pIC50", "setting": "[3]; 72 hours, listed as 2F BAP", "value": "< 3.78"}]}
